Structures are written as SMILES.

As a reminder, the IC50 is the point on the concentration scale where inhibition reaches its midpoint. Higher therefore signals weaker potency.

The assay deals with S1P3 receptor (Homo sapiens, UniProt Q99500). Put plainly: in vitro activity in the S1P3 receptor. The assay is classed as cell-based. The following applies: for IC50: Activity potency nM. As for the experimental part: The in vitro activity of these compounds in the S1P3 receptor was determined using the assay described in paragraph [0067] of United States Patent Application Publication No. 20070232682, which published on Oct. 4, 2007.
Chain of S1P3 receptor (Q99500 whole entry): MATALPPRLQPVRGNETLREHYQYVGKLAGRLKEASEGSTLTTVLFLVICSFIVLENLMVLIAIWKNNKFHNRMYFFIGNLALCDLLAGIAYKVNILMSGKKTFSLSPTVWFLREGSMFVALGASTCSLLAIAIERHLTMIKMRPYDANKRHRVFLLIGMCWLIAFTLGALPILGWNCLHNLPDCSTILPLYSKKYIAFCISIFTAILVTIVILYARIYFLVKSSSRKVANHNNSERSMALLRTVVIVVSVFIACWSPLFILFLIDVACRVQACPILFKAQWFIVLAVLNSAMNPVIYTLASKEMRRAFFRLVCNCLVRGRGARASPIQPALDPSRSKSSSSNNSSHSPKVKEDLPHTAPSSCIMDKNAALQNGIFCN

With `C=CCCOC(=O)Nc1cc2c3c(c1)C(c1ccccc1)CCN3CCC2c1ccccc1` (stereo not drawn) [compound 354, But-3-enyl 1,7-diphenyl-1,2,3,5,6,7-hexahydropyrido[3,2,1-ij]quinolin-9-ylcarbamate], the “S1P3 % Inhibition” value turned out to be 97% and the half-inhibitory concentration (IC50) was found to be 16 nM.
On to `CCCCOC(=O)Nc1cc2c3c(c1)C(c1cccc(F)c1)CCN3CCC2c1cccc(F)c1` (stereo not drawn) [compound 202, Butyl 1,7-bis(3-fluorophenyl)-1,2,3,5,6,7-hexahydropyrido[3,2,1-ij]quinolin-9-ylcarbamate], for which the half-maximal inhibitory concentration (IC50) was determined as 272 nM.
On the same count and under the same terms, the result for `CN(C)C(=O)Nc1cc2c3c(c1)C(c1ccccc1)CCN3CCC2c1ccccc1` (stereo not drawn) [compound 405, 3-(1,7-diphenyl-1,2,3,5,6,7-hexahydropyrido[3,2,1-ij]quinolin-9-yl)-1,1-dimethylurea] reads 131 nM.
For `CC#CCOC(=O)Nc1cc2c3c(c1)C(c1ccccc1)CCN3CCC2c1ccccc1` (stereo not drawn) [compound 353, But-2-ynyl 1,7-diphenyl-1,2,3,5,6,7-hexahydropyrido[3,2,1-ij]quinolin-9-ylcarbamate], the “S1P3 % Inhibition” value is given as 98% and the IC50 was 13 nM.
`CCCCOC(=O)Nc1cc2c3c(c1)C(c1ccccc1)CCN3CCC2c1ccccc1` (stereo not drawn) [compound 276, Butyl 1,7-diphenyl-1,2,3,5,6,7-hexahydropyrido[3,2,1-ij]quinolin-9-ylcarbamate]: half-maximal inhibition (IC50) required 8.7 nM.
The same measure, in the same setting: with `CCCCCCNC(=S)Nc1cc2c3c(c1)C(c1ccccc1)CCN3CCC2c1ccccc1` (stereo not drawn) [compound 256, 1-(1,7-diphenyl-1,2,3,5,6,7-hexahydropyrido[3,2,1-ij]quinolin-9-yl)-3-hexylthiourea] the figure was 78 nM; with `CC(C)(C)NC(=O)Nc1cc2c3c(c1)C(c1ccccc1)CCN3CCC2c1ccccc1` (stereo not drawn) [compound 148, 1-tert-butyl-3-(1,7-diphenyl-1,2,3,5,6,7-hexahydropyrido[3,2,1-ij]quinolin-9-yl)urea], 38 nM; with `C=CCNC(=O)Nc1cc2c3c(c1)C(c1ccccc1)CCN3CCC2c1ccccc1` (stereo not drawn) [compound 773, 1-allyl-3-(1,7-diphenyl-1,2,3,5,6,7-hexahydropyrido[3,2,1-ij]quinolin-9-yl)urea], 160 nM.
The same measure, in the same setting: with `CC(C)COC(=O)Nc1cc2c3c(c1)C(c1ccccc1)CCN3CCC2c1ccccc1` (stereo not drawn) [compound 274, Isobutyl 1,7-diphenyl-1,2,3,5,6,7-hexahydropyrido[3,2,1-ij]quinolin-9-ylcarbamate] the figure was 64 nM.
On to `O=C(Nc1cc2c3c(c1)C(c1ccccc1)CCN3CCC2c1ccccc1)OCCCCl` (stereo not drawn) [compound 205, 3-chloropropyl 1,7-diphenyl-1,2,3,5,6,7-hexahydropyrido[3,2,1-ij]quinolin-9-ylcarbamate], for which half-maximal inhibition (IC50) required 8 nM.
Compound `C#CCOC(=O)Nc1cc2c3c(c1)C(c1ccccc1)CCN3CCC2c1ccccc1` (stereo not drawn) [compound 352, Prop-2-ynyl 1,7-diphenyl-1,2,3,5,6,7-hexahydropyrido[3,2,1-ij]quinolin-9-ylcarbamate] registered an IC50 of 40 nM.
Same read-out and setting: with `O=C(NCCCl)Nc1cc2c3c(c1)C(c1ccccc1)CCN3CCC2c1ccccc1` (stereo not drawn) [compound 769, 1-(2-chloroethyl)-3-(1,7-diphenyl-1,2,3,5,6,7-hexahydropyrido[3,2,1-ij]quinolin-9-yl)urea] the figure was 374 nM; with `CCCCNC(=O)Nc1cc2c3c(c1)C(c1ccccc1)CCN3CCC2c1ccccc1` (stereo not drawn) [compound 485, 1-Butyl-3-(1,7-diphenyl-1,2,3,5,6,7-hexahydropyrido[3,2,1-ij]quinolin-9-yl)urea], 52 nM.
Still for that read-out and setting: with `CCCOC(=O)Nc1cc2c3c(c1)C(c1ccccc1)CCN3CCC2c1ccccc1` (stereo not drawn) [compound 275, Propyl 1,7-diphenyl-1,2,3,5,6,7-hexahydropyrido[3,2,1-ij]quinolin-9-ylcarbamate] the figure was 12.2 nM; with `O=C(NCc1ccoc1)Nc1cc2c3c(c1)C(c1ccccc1)CCN3CCC2c1ccccc1` (stereo not drawn) [compound 258, 1-(1,7-diphenyl-1,2,3,5,6,7-hexahydropyrido[3,2,1-ij]quinolin-9-yl)-3-(furan-3-ylmethyl)urea], 59 nM.
Still for that read-out and setting: with `COC(=O)Nc1cc2c3c(c1)C(c1ccccc1)CCN3CCC2c1ccccc1` (stereo not drawn) [compound 272, methyl 1,7-diphenyl-1,2,3,5,6,7-hexahydropyrido[3,2,1-ij]quinolin-9-ylcarbamate] the figure was 8.3 nM; with `O=C(Nc1cc2c3c(c1)C(c1ccccc1)CCN3CCC2c1ccccc1)Oc1ccccc1` (stereo not drawn) [compound 277, Phenyl 1,7-diphenyl-1,2,3,5,6,7-hexahydropyrido[3,2,1-ij]quinolin-9-ylcarbamate], 901 nM.
`CCOC(=O)Nc1cc2c3c(c1)C(c1ccccc1)CCN3CCC2c1ccccc1` (stereo not drawn) [compound 273, Ethyl 1,7-diphenyl-1,2,3,5,6,7-hexahydropyrido[3,2,1-ij]quinolin-9-ylcarbamate] had an IC50 of 63 nM.
The compound `CCNC(=O)Nc1cc2c3c(c1)C(c1ccccc1)CCN3CCC2c1ccccc1` (stereo not drawn) [compound 484, 1-(1,7-diphenyl-1,2,3,5,6,7-hexahydropyrido[3,2,1-ij]quinolin-9-yl)-3-ethylurea] had a 50% inhibitory concentration (IC50) of 77 nM.
In the case of `O=C(Nc1cc2c3c(c1)C(c1ccccc1)CCN3CCC2c1ccccc1)OCCF` (stereo not drawn) [compound 095, 2-fluoroethyl 1,7-diphenyl-1,2,3,5,6,7-hexahydropyrido[3,2,1-ij]quinolin-9-ylcarbamate], the IC50 worked out at 56 nM.
On the same count and under the same terms, the result for `CCCOC(=O)Nc1cc2c3c(c1)C(c1cccc(F)c1)CCN3CCC2c1cccc(F)c1` (stereo not drawn) [compound 094, Propyl 1,7-bis(3-fluorophenyl)-1,2,3,5,6,7-hexahydropyrido[3,2,1-ij]quinolin-9-ylcarbamate] reads 234 nM.
On the same count and under the same terms, with `CCCNC(=S)Nc1cc2c3c(c1)C(c1ccccc1)CCN3CCC2c1ccccc1` (stereo not drawn) [compound 255, 1-(1,7-diphenyl-1,2,3,5,6,7-hexahydropyrido[3,2,1-ij]quinolin-9-yl)-3-propylthiourea] the figure was 153 nM.
Still for that read-out and setting: the result for `COC(=O)Nc1cc2c3c(c1)C(c1cccc(F)c1)CCN3CCC2c1cccc(F)c1` (stereo not drawn) [compound 779, Methyl 1,7-bis(3-fluorophenyl)-1,2,3,5,6,7-hexahydropyrido[3,2,1-ij]quinolin-9-ylcarbamate] reads 23 nM.
Turning to `CCCCCCNC(=O)Nc1cc2c3c(c1)C(c1ccccc1)CCN3CCC2c1ccccc1` (stereo not drawn) [compound 487, 1-(1,7-diphenyl-1,2,3,5,6,7-hexahydropyrido[3,2,1-ij]quinolin-9-yl)-3-hexylurea], the IC50 was 301 nM. Against the preceding compound, the IC50 is about 13-fold higher.
The compound `O=C(Nc1cc2c3c(c1)C(c1ccccc1)CCN3CCC2c1ccccc1)OCc1ccccc1` (stereo not drawn) [compound 278, Benzyl 1,7-diphenyl-1,2,3,5,6,7-hexahydropyrido[3,2,1-ij]quinolin-9-ylcarbamate] had an IC50 of 66 nM.
For the compound `O=C(Nc1cc2c3c(c1)C(c1ccccc1)CCN3CCC2c1ccccc1)OCCCCCl` (stereo not drawn) [compound 206, 4-chlorobutyl 1,7-diphenyl-1,2,3,5,6,7-hexahydropyrido[3,2,1-ij]quinolin-9-ylcarbamate], the IC50 worked out at 62 nM.
The same measure, in the same setting: the result for `O=C(Nc1cc2c3c(c1)C(c1ccccc1)CCN3CCC2c1ccccc1)N1CCOCC1` (stereo not drawn) [compound 983, N-(1,7-diphenyl-1,2,3,5,6,7-hexahydropyrido[3,2,1-ij]quinolin-9-yl)morpholine-4-carboxamide] reads 130 nM; that for `CCOC(=O)Nc1cc2c3c(c1)C(c1cccc(F)c1)CCN3CCC2c1cccc(F)c1` (stereo not drawn) [compound 093, Ethyl 1,7-bis(3-fluorophenyl)-1,2,3,5,6,7-hexahydropyrido[3,2,1-ij]quinolin-9-ylcarbamate], 48 nM.

The values above are taken from patent US20090281322A1, “THERAPEUTICALLY USEFUL SUBSTITUTED 1,7-DIPHENYL-1,2,3,5,6,7-HEXAHYDROPYRIDO[3,2,1-Ij]QUINOLINE COMPOUNDS” (ALLERGAN, INC., priority 2008, published 2009).
